According to patent publication US20080194539A1, “Phenyl Diazepane Carboxamides and Annelated Phenyl Piperazine Carboxamides Containing Oxygen and Used as Dopamine D3 Antagonists” (Schwarz Pharma AG, priority 2004, published 2008):
Like-named read-outs stand apart in the source and are kept apart here.

Assays:
[1] = biological target: T1, human D2long (Homo sapiens, UniProt P14416); experiment: Radioligand binding, human D2long in CHO cell membranes, [3H]spiperone; conditions: human receptor in CHO membranes, average of 2-6 experiments in triplicate
T1 construct: expressed in transfected cells
T1 sequence (P14416 whole entry): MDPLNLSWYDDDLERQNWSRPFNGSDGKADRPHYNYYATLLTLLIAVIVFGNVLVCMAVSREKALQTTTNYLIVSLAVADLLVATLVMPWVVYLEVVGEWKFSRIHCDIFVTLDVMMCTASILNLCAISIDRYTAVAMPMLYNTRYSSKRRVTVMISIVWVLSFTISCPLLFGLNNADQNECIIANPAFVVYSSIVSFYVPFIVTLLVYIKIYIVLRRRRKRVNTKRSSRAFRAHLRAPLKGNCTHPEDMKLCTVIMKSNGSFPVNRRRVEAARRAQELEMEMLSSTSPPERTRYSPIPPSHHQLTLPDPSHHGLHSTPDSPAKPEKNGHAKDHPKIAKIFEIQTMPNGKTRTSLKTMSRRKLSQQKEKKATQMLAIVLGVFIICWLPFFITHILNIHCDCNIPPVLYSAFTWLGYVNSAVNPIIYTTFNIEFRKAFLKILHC
Method: (§1) The biological activities of the compounds according to the invention were determined in radioligand binding investigations. All radioligand experiments were performed according to methods described by us (Hübner, H. et al. J. Med. Chem. 2000, 43, 756-762). For the measurement of the affinities to the receptors of the D2-family membrane homogenates of Chinese hamster ovary cells (CHO cells) were used, which stably express the human D2long-, the human D2short- (Hayes, G. et al. Mol. Endocrinol. 1992, 6, 920-926), the human D3- (Sokoloff, P. et al. Eur. J. Pharmacol. 1992, 225, 331-337) or the human D4.4-receptor sub-type, (Asghari, V. J. Neurochem. 1995, 65, 1157-1165) respectively. Basically the binding assays took place by incubation of the receptor homogenates with the radioligand [^3H]spiperone and the compounds under investigation in various concentrations. Determination of the affinities to the D1-receptor took place with native membrane homogenates, obtained from porcine striatum, and the D1-selective radioligands [^3H]SCH 23390.

[2] = biological target: T2, human D2short (Homo sapiens, UniProt P14416); experiment: Radioligand binding, human D2short in CHO cell membranes, [3H]spiperone; conditions: human receptor in CHO membranes, average of 2-6 experiments in triplicate
T2 construct: expressed in transfected cells
T2 sequence (P14416 1-414 isoform P14416-2): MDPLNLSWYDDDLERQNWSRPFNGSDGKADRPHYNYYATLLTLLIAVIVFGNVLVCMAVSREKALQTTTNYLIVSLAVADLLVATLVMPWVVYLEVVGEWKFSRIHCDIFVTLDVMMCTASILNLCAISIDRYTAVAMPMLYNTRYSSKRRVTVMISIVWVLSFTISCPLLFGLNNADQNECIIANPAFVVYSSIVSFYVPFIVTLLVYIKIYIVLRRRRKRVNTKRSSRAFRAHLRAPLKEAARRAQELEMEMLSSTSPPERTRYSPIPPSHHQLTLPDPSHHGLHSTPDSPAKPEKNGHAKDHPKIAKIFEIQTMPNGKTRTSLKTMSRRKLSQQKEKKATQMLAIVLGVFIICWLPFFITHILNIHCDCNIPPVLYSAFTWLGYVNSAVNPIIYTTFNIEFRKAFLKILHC
Method: as §1

[3] = biological target: T3, 5-HT1a (Sus scrofa, UniProt A0A4X1UTF5); experiment: Radioligand binding, 5-HT1a, porcine cortex membranes, [3H]8-OH-DPAT; conditions: porcine 5-HT1a, average of 2-6 experiments in triplicate, read-out: Receptor binding Ki 5-HT1
T3 construct: we incubated porcine cortex-membrane preparations; from tissue; host or cells: porcine cortex
T3 sequence (A0A4X1UTF5 1-422): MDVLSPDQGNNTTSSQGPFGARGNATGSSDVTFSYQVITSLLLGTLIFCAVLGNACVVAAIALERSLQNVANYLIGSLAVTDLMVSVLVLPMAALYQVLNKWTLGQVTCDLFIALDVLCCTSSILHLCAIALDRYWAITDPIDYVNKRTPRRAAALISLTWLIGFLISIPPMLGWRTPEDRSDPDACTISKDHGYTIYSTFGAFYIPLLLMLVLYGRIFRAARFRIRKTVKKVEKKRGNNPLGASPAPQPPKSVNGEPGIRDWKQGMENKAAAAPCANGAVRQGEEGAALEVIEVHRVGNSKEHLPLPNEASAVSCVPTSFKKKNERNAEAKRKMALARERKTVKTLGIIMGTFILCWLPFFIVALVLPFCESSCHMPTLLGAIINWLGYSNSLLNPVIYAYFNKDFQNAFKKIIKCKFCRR
Method: (§2) Measurement of the binding strengths of the compounds to the serotonin-receptor subtypes 5-HT1a and 5-HT2 was carried out according to methods described by us (Heindl, C. et al. Tetrahedron: Asymmetry 2003, 14, 3141-3152). For this we incubated porcine cortex-membrane preparations with the radioligands [^3H]8-OH-DPAT (for 5-HT1a) or [^3H]ketanserin (5-HT2) and the compounds in various concentrations. In the same way the affinity of the test compounds to the porcine α1-receptor was investigated, wherein porcine cortex-membrane preparations and the α1-selective radioligand [^3H]prazosin were used.

[4] = biological target: T4, human D3 (Homo sapiens, UniProt P35462); experiment: Radioligand binding, human D3 in CHO cell membranes, [3H]spiperone
T4 construct: expressed in transfected cells
T4 sequence (P35462 whole entry): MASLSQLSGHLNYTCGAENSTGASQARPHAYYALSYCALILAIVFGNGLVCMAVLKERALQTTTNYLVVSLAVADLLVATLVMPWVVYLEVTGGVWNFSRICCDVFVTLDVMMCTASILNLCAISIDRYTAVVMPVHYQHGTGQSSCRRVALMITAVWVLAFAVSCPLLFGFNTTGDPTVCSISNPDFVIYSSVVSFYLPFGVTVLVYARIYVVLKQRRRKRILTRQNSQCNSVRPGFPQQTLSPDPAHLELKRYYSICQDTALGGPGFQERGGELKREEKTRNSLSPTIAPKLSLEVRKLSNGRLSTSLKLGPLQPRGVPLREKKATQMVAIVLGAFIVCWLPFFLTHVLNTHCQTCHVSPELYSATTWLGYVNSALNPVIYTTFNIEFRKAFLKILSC
Method: as §1

[5] = biological target: T5, 5-HT2 (Sus scrofa, UniProt P50129); experiment: Radioligand binding, 5-HT2, porcine cortex membranes, [3H]ketanserin; conditions: average of 2-6 experiments in triplicate, read-out: Receptor binding Ki 5-HT2
T5 construct: we incubated porcine cortex-membrane preparations; from tissue; host or cells: porcine cortex
T5 sequence (P50129 whole entry): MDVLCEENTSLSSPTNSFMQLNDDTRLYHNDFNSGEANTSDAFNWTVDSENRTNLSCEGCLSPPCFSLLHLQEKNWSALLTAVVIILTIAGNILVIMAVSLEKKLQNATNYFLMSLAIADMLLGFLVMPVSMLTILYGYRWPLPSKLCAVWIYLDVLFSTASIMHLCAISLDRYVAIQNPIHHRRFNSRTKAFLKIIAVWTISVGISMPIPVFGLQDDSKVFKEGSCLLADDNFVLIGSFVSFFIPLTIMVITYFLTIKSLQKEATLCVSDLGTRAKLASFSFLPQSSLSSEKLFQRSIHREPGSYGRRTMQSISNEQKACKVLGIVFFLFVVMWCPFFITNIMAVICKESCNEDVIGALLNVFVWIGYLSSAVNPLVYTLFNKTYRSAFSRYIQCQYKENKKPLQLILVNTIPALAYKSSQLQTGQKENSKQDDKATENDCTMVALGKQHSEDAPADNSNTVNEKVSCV
Method: as §2

[6] = biological target: T6, human D4.4 (Homo sapiens, UniProt P21917); experiment: Radioligand binding, human D4.4 in CHO cell membranes, [3H]spiperone; conditions: human D4.4 in CHO membranes, average of 2-6 experiments in triplicate, read-out: Receptor binding Ki D4
T6 construct: expressed in transfected cells
T6 sequence (P21917 1-419): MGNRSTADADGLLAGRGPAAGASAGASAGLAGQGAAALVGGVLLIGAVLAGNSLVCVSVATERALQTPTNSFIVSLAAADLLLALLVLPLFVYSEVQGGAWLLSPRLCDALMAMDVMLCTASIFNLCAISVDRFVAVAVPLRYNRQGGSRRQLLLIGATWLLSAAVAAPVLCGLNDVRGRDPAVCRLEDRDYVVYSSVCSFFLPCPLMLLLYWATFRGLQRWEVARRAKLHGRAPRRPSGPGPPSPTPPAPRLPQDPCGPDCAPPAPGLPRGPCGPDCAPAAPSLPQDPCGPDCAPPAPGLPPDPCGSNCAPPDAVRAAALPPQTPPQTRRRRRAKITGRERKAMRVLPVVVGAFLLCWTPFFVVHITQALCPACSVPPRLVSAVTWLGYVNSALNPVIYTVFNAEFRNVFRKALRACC
Method: as §1

[7] = biological target: T7, dopamine D3 receptor (Homo sapiens, UniProt P35462); experiment: Mitogenesis assay, [3H]thymidine incorporation in D3 receptor-expressing cells; format: cell-based; conditions: for Agonistic activity: with reference to the maximum effect of the full agonist quinpirol; for EC50: dose-effect curve, seven concentrations in quadruplicate
T7 construct: expressed in transfected cells
T7 sequence (P35462 whole entry): as the sequence (P35462 whole entry) above
Method: Here various concentrations of the compounds under investigation were incubated with D3 receptor-expressing cells and then the receptor-mediated stimulation of the mitogenesis rate was measured by incorporation of the radioactive marker [^3H]thymidine.

[8] = biological target: porcine α1-receptor; experiment: Radioligand binding, α1-receptor, porcine cortex membranes, [3H]prazosin; conditions: average of 2-6 experiments in triplicate, read-out: Receptor binding Ki alpha1
Method: as §2

[9] = biological target: T8, D1-receptor (Sus scrofa, UniProt P50130); experiment: Radioligand binding, D1-receptor, porcine striatum membranes, [3H]SCH 23390; conditions: average of 2-6 experiments in triplicate
T8 construct: native membrane homogenates, obtained from porcine striatum; from tissue; host or cells: porcine striatum
T8 sequence (P50130 whole entry): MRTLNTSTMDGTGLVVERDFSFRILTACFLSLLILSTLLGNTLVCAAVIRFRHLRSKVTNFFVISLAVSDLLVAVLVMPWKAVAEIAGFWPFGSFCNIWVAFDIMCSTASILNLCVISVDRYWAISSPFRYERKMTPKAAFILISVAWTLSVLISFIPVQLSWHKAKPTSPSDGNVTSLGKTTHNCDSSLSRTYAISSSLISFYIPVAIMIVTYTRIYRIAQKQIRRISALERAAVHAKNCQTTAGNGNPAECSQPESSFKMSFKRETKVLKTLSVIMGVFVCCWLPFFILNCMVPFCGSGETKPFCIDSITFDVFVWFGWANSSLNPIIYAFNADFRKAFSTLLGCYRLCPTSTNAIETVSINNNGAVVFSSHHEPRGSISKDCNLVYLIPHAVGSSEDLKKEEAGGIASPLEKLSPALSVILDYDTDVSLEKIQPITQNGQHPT
Method: as §1

[10] = biological target: T4, human D3; conditions: compounds known from the prior art (WO 2004/004729), read-out: D3-bonding (Ki), comparative substance, cited from earlier work
[11] = Table 1a, read-out: D3-bonding (Ki), substance according to the invention
[12] = human receptor in CHO membranes, [3H]spiperone, average of 2-6 experiments in triplicate, read-out: Receptor binding Ki D3
[13] = Table 1c, read-out: D3-bonding (Ki), substance according to the invention
[14] = Table 1b, read-out: D3-bonding (Ki), substance according to the invention

Row | Ki [1] | Ki [2] | Ki [3] | Ki [4, 11] | Ki [4, 12] | Ki [5] | Ki [6] | Agonistic activity [7] | Ki [8] | Ki [9] | Ki [4, 13] | Compound | other results
1 | 45 nM | 27 nM | 30 nM | 0.35 nM | 0.16 nM | 110 nM | 22 nM | 0% | 2 nM | 300 nM | – | O=C(NCCCCN1CCN(c2cccc3c2OCC3)CC1)c1cc2ccccc2[nH]1 [Example 2, N-(4-(4-(2,3-dihydrobenzofuran-7-yl)piperazin-1-yl)butyl)indol-2-ylcarbamide] | –
2 | – | – | – | – | – | – | – | – | – | – | 0.098 nM | O=C(NCCCCN1CCN(c2cccc3c2OCCCC3)CC1)c1cc2ccccc2s1 [Example 12, N-(4-(4-(2,3,4,5-tetrahydrobenzo[b]oxepin-9-yl)piperazin-1-yl)butyl)benzo[b]thiophen-2-ylcarbamide] | melting point: 124 °C
3 | – | – | – | – | – | – | – | – | – | – | – | O=C(NCCCCN1CCN(c2cccc3c2OCCCC3)CC1)c1cc2ccccc2o1 [Example 14, N-(4-(4-(2,3,4,5-tetrahydrobenzo[b]oxepin-9-yl)piperazin-1-yl)butyl)benzofuran-2-ylcarbamide] | Ki [4, 14]: 0.089 nM
4 | 42 nM | 22 nM | 20 nM | 0.17 nM | 0.17 nM | 110 nM | 34 nM | 0% | 2.3 nM | 290 nM | – | O=C(NCCCCN1CCN(c2cccc3c2OCCC3)CC1)c1cc2ccccc2[nH]1 [Example 4, N-(4-(4-(chroman-8-yl)piperazin-1-yl)butyl)indol-2-ylcarbamide] | –
5 | – | – | – | 0.052 nM | – | – | – | – | – | – | – | O=C(NCCCCN1CCN(c2cccc3c2OCCCC3)CC1)c1cc2ccccc2[nH]1 [Example 16, N-(4-(4-(2,3,4,5-tetrahydrobenzo[b]oxepin-9-yl)piperazin-1-yl)butyl)indol-2-ylcarbamide] | –
6 | 110 nM | 83 nM | 17 nM | – | 0.35 nM | 77 nM | 50 nM | 38% | 4.6 nM | 300 nM | 0.16 nM | O=C(NCCCCN1CCN(c2cccc3c2OCCC3)CC1)c1cc2ccccc2s1 [Example 3, N-(4-(4-(chroman-8-yl)piperazin-1-yl)butyl)benzo[b]thiophen-2-ylcarbamide] | melting point: 134 °C; EC50 [7]: 1.8 nM
7 | – | – | – | – | – | – | – | – | – | – | 0.097 nM | N#Cc1ccc2sc(C(=O)NCCCCN3CCN(c4cccc5c4OCCCC5)CC3)cc2c1 [Example 13, N-(4-(4-(2,3,4,5-tetrahydrobenzo[b]oxepin-9-yl)piperazin-1-yl)butyl)-5-cyanobenzo[b]thiophen-2-ylcarbamide] | –
8 | – | – | – | 0.075 nM | – | – | – | – | – | – | – | N#Cc1ccc2cc(C(=O)NCCCCN3CCN(c4cccc5c4OCCCC5)CC3)[nH]c2c1 [Example 17, N-(4-(4-(2,3,4,5-tetrahydrobenzo[b]oxepin-9-yl)piperazin-1-yl)butyl)-6-cyanoindol-2-ylcarbamide] | –
9 | – | – | – | – | – | – | – | – | – | – | – | N#Cc1ccc2sc(C(=O)NCCCCN3CCN(c4cccc(Cl)c4Cl)CC3)cc2c1 | Ki ([10]; Table 1c): 0.25 nM
10 | – | – | – | – | – | – | – | – | – | – | – | N#Cc1ccc2cc(C(=O)NCCCCN3CCN(c4cccc(Cl)c4Cl)CC3)[nH]c2c1 | Ki ([10]; Table 1a): 0.35 nM
11 | – | – | – | – | – | – | – | – | – | – | – | N-(4-(4-(2,3,4,5-tetrahydrobenzo[b]oxepin-9-yl)piperazin-1-yl)butyl)-5-bromobenzofuran-2-ylcarbamide [Example 15] | Ki [4, 14]: 0.11 nM

Row | Compound | Ki [1] | Ki [2] | Ki [3] | Ki [4, 11] | Ki [4, 12] | Ki [5] | Ki [6] | Agonistic activity [7] | Ki [8] | Ki [9] | Ki [4, 13] | other results
12 | O=C(NCCCCN1CCN(c2cccc3c2OCC3)CC1)c1cc2ccccc2s1 [Example 1, N-(4-(4-(2,3-dihydrobenzofuran-7-yl)piperazin-1-yl)butyl)benzo[b]thiophen-2-ylcarbamide] | 73 nM | 50 nM | 18 nM | – | 0.31 nM | 100 nM | 65 nM | 42% | 4.2 nM | 260 nM | 0.31 nM | EC50 [7]: 3.2 nM
